# US9351918B2, “Polyglycerol-azelaic acid polyesters for cosmetic applications” (GIULIANI S.P.A., priority 2012, dated 2016)
# Legend:
# [1] = tested on: TNF-α gene expression in human keratinocytes NCTC 2544; test: Test of irritancy potential in NCTC2544: TNF-α gene expression by RT-PCR, compared with LPS positive control; assay type: cell-based; settings: 20 μM, 24 hours
# Experimental: The irritant potential of the derivative (POLY-AZ) was also determined in vitro compared with a positive control (cells treated with 5 μg/ml of lipopolysaccharide). The results were compared with those obtained using azelaic acid (AZ-ACID) in the same experimental model.
# (§1) The TNF-α gene expression in NCTC 2544 was evaluated using RT-PCR.
# Test of Irritancy Potential in NCTC2544
# When the cells (human keratinocytes NCTC 2544) reached approximately 80% confluence, they were separated with trypsin/EDTA and seeded at a density of 1×10^6 cells/ml in a 12-well plate and then incubated at 37° C., 5% CO2 (24 hours).
# Day 2: 24-Hour Exposure to Substances […]
# (§2) The extracted and quantified total RNA was amplified using the “High Capacity cDNA Reverse Transcription Kit” (Applied Biosystems). […]
# (§3) The relative quantification method was used which compares the relative concentration of the gene of interest (target) in unknown samples to a calibrator or control sample (untreated cells). […]
# (§4) The data provided by the Stratagene Mx3000P tool was recorded by the MXpro v.4.01 software. […]
# The TNF-α gene expression in NCTC 2544 cells was also evaluated after treatments with 20 μM of polyglyceryl-3-azelaiate and 20 μM of azelaic acid compared with cells treated with LPS (5 μg/ml) in the culture medium, in order to compare the effects of these compounds against a known irritant agent (LPS). […]
# [2] = tested on: TNF-α gene expression in human keratinocytes NCTC 2544; test: Anti-inflammatory test on NCTC2544: TNF-α gene expression by RT-PCR with LPS from E. coli; assay type: cell-based; settings: 20 μM together with LPS 5 μg/ml, 24 hours
# Experimental: The anti-inflammatory effects were investigated of polyglyceryl-3 azelaiate oligomers (POLY-AZ) obtained with the method in Example 1 in an in vitro model of inflammation on human keratinocytes NCTC2544, and using lipopolysaccharide
# (LPS) from E. coli to mediate inflammation or irritation. The effect of the derivative in the models used was compared with that of azelaic acid (AZ-ACID), a known anti-inflammatory agent.
# as §1
# There are four phases to the gene expression analysis:
# 1. Treatment of cells with active compounds for 16, 24 and 48 hours; […]
# as §2, §3, §4
# Following the preliminary model validation experiment described above, the TNF-α gene expression was evaluated using RT-PCR on NCTC 2544 cells, after treatments with 20 μM of polyglyceryl-3-azelaiate and 20 μM of azelaic acid together with LPS at 5 μg/ml in the culture medium to evaluate the anti-inflammatory effect of the two compounds. […]
structure (smiles),measurement,setting,value
"O=C(O)CCCCCCCC(=O)O [azelaic acid, nonanedioic acid]",Irritancy potential,[1],neither are irritating
same,Inhibitory effect on TNF-α gene expression (anti-inflammatory effect),[2],does not produce an inhibitory effect
